Source: US9650339B2, “Inhibitors of histone demethylases” (Gilead Sciences, Inc., priority 2013, dated 2017)

Legend:
Format in all cases: biochemical
KDM2B (FBXL10) = target: T1, KDM2B (FBXL10) (Homo sapiens, UniProt Q8NHM5); test: Histone lysine demethylase AlphaLISA assay, KDM2B; conditions: read-out: KDM2B HDME Inhibition IC50
T1 sequence (Q8NHM5 1-650): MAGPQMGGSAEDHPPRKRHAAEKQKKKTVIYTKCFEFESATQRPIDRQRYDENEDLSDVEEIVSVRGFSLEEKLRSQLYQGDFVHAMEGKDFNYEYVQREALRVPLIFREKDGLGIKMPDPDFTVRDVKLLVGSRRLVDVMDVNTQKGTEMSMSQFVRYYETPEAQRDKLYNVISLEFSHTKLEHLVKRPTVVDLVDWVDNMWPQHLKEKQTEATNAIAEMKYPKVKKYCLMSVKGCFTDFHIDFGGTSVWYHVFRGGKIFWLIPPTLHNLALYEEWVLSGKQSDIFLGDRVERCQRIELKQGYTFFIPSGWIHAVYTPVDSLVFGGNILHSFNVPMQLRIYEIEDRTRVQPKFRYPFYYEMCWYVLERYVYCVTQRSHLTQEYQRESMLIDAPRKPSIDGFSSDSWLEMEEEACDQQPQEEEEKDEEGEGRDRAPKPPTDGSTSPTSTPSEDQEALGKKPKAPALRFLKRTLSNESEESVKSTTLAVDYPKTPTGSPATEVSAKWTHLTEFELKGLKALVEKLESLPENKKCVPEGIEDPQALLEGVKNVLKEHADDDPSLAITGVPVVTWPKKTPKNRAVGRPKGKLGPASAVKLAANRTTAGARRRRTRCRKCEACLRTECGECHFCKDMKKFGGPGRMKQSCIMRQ
Method in brief: (§1)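 Biotinylated methylated H3 peptides (K9, K4, K27 or K36 marks) served as substrate, with 25 μM L-Asc and 10 μM α-KG. Enzymes were preincubated 10 min, then exposed to compounds (3% DMSO solutions) 10 min; product detected by AlphaLISA acceptor and streptavidin donor beads at room temperature in dark.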

KDM4A (JMJD2A) = target: T2, KDM4A (JMJD2A) (Homo sapiens, UniProt O75164); test: Histone lysine demethylase AlphaLISA assay, KDM4A; conditions: read-out: KDM4A HDME Inhibition IC50
T2 construct: 1-350; purchased BPS Bioscience, US; host or cells: E. coli
T2 sequence (O75164 1-350): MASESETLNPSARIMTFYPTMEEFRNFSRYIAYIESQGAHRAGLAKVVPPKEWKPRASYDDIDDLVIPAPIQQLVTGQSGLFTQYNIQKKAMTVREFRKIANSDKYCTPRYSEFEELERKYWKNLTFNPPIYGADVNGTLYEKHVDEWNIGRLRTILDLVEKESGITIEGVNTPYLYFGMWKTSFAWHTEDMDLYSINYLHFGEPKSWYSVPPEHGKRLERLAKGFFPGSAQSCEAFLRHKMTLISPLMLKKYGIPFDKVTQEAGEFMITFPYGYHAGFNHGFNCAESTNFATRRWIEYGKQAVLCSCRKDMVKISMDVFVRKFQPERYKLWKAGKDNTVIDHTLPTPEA
Method in brief: as §1

KDM5C (JARID1C) = target: T3, KDM5C (JARID1C) (Homo sapiens, UniProt P41229); test: Histone lysine demethylase AlphaLISA assay, KDM5C; conditions: read-out: KDM5C HDME Inhibition IC50
T3 construct: 2-1560; purchased BPS; host or cells: Bac (baculovirus system)
T3 sequence (P41229 2-1560): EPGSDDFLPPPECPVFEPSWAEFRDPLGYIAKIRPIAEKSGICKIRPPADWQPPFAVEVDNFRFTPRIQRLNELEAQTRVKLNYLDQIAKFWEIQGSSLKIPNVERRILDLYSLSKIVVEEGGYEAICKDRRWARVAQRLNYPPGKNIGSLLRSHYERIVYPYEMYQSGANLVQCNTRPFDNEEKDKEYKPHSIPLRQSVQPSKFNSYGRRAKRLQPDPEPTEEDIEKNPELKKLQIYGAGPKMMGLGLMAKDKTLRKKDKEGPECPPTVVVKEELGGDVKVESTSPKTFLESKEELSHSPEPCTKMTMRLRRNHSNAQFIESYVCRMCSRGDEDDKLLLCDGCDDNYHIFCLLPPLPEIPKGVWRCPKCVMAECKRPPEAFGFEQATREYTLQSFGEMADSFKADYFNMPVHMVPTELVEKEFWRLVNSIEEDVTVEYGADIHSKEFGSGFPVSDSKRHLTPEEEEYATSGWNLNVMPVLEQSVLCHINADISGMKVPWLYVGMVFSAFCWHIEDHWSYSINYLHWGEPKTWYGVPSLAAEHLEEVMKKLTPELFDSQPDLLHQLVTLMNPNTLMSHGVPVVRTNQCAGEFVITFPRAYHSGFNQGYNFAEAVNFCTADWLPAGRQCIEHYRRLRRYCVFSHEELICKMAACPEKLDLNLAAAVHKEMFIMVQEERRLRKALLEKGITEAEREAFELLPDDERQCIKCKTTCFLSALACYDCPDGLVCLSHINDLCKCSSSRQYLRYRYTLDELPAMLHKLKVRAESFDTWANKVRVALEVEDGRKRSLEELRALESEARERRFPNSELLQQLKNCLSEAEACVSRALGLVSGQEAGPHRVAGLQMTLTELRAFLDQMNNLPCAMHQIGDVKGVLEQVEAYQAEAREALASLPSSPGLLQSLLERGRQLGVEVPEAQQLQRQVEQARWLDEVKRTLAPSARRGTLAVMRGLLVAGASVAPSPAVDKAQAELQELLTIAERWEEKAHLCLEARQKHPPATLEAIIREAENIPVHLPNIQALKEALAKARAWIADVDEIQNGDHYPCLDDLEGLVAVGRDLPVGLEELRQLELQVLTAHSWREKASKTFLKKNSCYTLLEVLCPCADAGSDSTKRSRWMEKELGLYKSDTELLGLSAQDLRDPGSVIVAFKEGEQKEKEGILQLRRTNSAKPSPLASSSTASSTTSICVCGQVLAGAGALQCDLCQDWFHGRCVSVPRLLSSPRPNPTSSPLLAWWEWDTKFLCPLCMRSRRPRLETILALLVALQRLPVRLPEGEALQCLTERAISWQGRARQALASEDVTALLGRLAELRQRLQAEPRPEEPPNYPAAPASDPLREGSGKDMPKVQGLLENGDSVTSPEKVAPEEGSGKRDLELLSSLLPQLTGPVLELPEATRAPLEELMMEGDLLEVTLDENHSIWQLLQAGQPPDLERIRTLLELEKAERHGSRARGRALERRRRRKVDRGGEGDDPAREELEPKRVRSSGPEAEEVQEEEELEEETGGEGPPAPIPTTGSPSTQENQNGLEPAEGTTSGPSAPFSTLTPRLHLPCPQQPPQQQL
Method in brief: as §1

KDM5B (PLU-1) = target: T4, KDM5B (PLU-1) (Homo sapiens, UniProt Q9UGL1); test: Histone lysine demethylase AlphaLISA assay, KDM5B; conditions: read-out: KDM5B HDME Inhibition IC50
T4 sequence (Q9UGL1 1-809): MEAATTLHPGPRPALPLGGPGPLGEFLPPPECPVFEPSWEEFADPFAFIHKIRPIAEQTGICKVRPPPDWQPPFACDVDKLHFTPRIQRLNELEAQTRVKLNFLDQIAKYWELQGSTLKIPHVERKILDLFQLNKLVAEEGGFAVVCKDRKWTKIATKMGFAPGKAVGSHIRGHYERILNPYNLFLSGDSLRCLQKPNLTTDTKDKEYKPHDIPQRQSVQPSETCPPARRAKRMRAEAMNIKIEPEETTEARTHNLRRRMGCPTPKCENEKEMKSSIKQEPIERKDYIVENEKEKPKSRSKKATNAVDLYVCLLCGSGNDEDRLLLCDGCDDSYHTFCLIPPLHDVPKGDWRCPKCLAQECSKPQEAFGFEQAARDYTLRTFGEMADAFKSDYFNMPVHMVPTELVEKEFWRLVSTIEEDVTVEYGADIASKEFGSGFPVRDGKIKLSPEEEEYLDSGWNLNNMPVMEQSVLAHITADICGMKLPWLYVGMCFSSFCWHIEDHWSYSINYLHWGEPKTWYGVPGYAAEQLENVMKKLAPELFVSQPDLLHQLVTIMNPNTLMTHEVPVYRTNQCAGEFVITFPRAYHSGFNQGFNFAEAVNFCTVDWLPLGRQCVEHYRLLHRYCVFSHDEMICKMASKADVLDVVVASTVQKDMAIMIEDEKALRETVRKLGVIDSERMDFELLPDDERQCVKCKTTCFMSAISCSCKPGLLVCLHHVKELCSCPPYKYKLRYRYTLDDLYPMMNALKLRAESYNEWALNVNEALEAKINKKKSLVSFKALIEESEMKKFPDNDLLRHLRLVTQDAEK
Method in brief: as §1

KDM6A (UTX) = KDM6A (UTX) (Homo sapiens, UniProt O15550); test: Histone lysine demethylase AlphaLISA assay, KDM6A; conditions: read-out: KDM6A HDME Inhibition IC50
Chain of KDM6A (UTX) (O15550 919-1401): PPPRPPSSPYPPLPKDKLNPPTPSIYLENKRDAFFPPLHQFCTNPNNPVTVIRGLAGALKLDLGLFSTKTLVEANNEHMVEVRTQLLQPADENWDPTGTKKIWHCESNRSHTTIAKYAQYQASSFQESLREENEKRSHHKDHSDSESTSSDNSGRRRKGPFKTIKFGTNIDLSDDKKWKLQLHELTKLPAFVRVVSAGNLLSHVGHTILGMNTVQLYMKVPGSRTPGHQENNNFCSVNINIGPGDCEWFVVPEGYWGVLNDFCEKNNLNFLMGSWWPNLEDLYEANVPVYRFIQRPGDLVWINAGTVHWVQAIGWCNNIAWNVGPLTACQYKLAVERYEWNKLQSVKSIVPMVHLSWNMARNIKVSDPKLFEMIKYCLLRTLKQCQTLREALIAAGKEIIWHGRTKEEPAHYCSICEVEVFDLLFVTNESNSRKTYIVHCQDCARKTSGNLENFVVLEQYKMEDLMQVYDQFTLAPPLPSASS
Method in brief: as §1

KDM6B (JMJD3) = target: T5, KDM6B (JMJD3) (Homo sapiens, UniProt O15054); test: Histone lysine demethylase AlphaLISA assay, KDM6B; conditions: read-out: KDM6B HDME Inhibition IC50
T5 construct: 1043-end; purchased BPS; host or cells: Bac (baculovirus system)
T5 sequence (O15054 1043-1682 isoform O15054-1 limits assumed): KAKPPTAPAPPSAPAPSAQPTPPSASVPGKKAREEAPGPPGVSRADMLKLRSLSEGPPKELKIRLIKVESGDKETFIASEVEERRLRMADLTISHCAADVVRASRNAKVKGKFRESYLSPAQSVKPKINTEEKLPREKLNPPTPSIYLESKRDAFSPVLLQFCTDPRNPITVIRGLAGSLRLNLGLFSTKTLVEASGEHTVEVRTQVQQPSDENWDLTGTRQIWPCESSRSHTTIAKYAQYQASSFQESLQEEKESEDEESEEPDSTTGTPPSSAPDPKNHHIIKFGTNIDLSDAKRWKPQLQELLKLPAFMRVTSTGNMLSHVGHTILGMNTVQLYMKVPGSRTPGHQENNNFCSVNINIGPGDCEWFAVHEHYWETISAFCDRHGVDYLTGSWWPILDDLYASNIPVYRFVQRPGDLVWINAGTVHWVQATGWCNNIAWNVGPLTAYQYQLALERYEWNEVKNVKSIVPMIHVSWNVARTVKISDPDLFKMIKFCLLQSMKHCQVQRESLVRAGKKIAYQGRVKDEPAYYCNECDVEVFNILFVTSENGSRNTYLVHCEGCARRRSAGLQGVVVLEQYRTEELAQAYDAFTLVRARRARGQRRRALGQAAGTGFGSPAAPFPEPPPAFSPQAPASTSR
Method in brief: as §1

| IC50 (KDM2B (FBXL10)) [µM] | IC50 (KDM4A (JMJD2A)) [µM] | IC50 (KDM5C (JARID1C)) [µM] | IC50 (KDM5B (PLU-1)) [µM] | IC50 (KDM6A (UTX)) [µM] | IC50 (KDM6B (JMJD3)) [µM] | Compound |
| --- | --- | --- | --- | --- | --- | --- |
| 0.25 to 2.5 | 0.25 to 2.5 | < 0.25 | 0.25 to 2.5 | > 2.5 | > 2.5 | CCSCCNCc1cc(/C=N/C2CC2)ccn1 [Compound 39, N-{[2-({[2-(ethylsulfanyl)-ethyl]amino}methyl)pyridin-4-yl]methylidene}-cyclopropanamine] |
| > 2.5 | > 2.5 | < 0.25 | < 0.25 | > 2.5 | > 2.5 | CN1CCCC1CCNCc1cc(/C=N/C2CC2)ccn1 (stereo not drawn) [Compound 40, N-{[2-({[2-(l-methylpyrrolidin-2-yl)ethyl]amino}methyl)-pyridin-4-yl]methylidene}-cyclopropanamine] |
| > 2.5 | > 2.5 | < 0.25 | < 0.25 | > 2.5 | > 2.5 | C(=N/C1CC1)/c1ccnc(CNCCCN2CCCC2)c1 [Compound 42, N-{[2-({[3-(pyrrolidin-1-yl)propyl]amino}-methyl)pyridin-4-yl]methylidene}-cyclopropanamine] |
| > 2.5 | 0.25 to 2.5 | < 0.25 | < 0.25 | > 2.5 | > 2.5 | CN(C)C/C=C/CNCc1cc(/C=N/C2CC2)ccn1 [Compound 43, N-{[2-({[(2E)-4-(dimethylamino)but-2-en-1-yl]amino}-methyl)pyridin-4-yl]methylidene}-cyclopropanamine] |
| > 2.5 | > 2.5 | < 0.25 | < 0.25 | > 2.5 | 0.25 to 2.5 | C(=N\C1CC1)/c1ccnc(CNCCCCN2CCC2)c1 [Compound 44, N-{[2-({[4-(azetidin-1-yl)butyl]amino}methyl)-pyridin-4-yl]methylidene}-cyclopropanamine] |
| > 2.5 | > 2.5 | < 0.25 | 0.25 to 2.5 | > 2.5 | > 2.5 | CN(C)CCCCNCc1cc(/C=N\C2CC2)ccn1 [Compound 45, N-{[2-({[4-(dimethylamino)butyl]-amino}methyl)-pyridin-4-yl]methylidene}-cyclopropanamine] |
| > 2.5 | > 2.5 | < 0.25 | < 0.25 | > 2.5 | > 2.5 | CN(C)CCCCCNCc1cc(/C=N/C2CC2)ccn1 [Compound 47, N-{[2-({[5-(dimethylamino)-pentyl]amino}-methyl)pyridin-4-yl]methylidene}-cyclopropanamine] |
| 0.25 to 2.5 | < 0.25 | < 0.25 | < 0.25 | > 2.5 | > 2.5 | CCN(CCC#N)C(=O)CNCc1cc(/C=N/C2CC2)ccn1 [Compound 50, N-(2-cyanoethyl)-2-[({4-[N-cyclopropyl-carboximidoyl]-pyridin-2-yl}methyl)amino]-N-ethylacetamide] |
| > 2.5 | 0.25 to 2.5 | 0.25 to 2.5 | 0.25 to 2.5 | > 2.5 | > 2.5 | C#CCN(C)C(=O)CNCc1cc(/C=N/C2CC2)ccn1 [Compound 56, 2-[({4-[N-cyclopropyl-carboximidoyl]-pyridin-2-yl}methyl)amino]-N-methyl-N-(prop-2-yn-1-yl)acetamide] |

More lines, now with the values behind:

| Compound | IC50 (KDM2B (FBXL10)) [µM] | IC50 (KDM4A (JMJD2A)) [µM] | IC50 (KDM5C (JARID1C)) [µM] | IC50 (KDM5B (PLU-1)) [µM] | IC50 (KDM6A (UTX)) [µM] | IC50 (KDM6B (JMJD3)) [µM] |
| --- | --- | --- | --- | --- | --- | --- |
| CN(C)CC1CCC(CNCc2cc(/C=N/C3CC3)ccn2)CC1 (stereo not drawn) [Compound 46, N-[(2-{[({4-[(dimethylamino)-methyl]cyclohexyl}-methyl)amino]-methyl}pyridin-4-yl)methylidene]-cyclopropanamine] | > 2.5 | 0.25 to 2.5 | < 0.25 | 0.25 to 2.5 | > 2.5 | > 2.5 |
| CCN(CC)CCCCNC(=O)CNCc1cc(/C=N/C2CC2)ccn1 [Compound 48, 2-[({4-[N-cyclopropyl-carboximidoyl]pyridin-2-yl}methyl)amino]-N-[4-(diethylamino)-butyl]acetamide] | > 2.5 | < 0.25 | < 0.25 | < 0.25 | > 2.5 | > 2.5 |
| O=C(CNCc1cc(/C=N/C2CC2)ccn1)N1CCC[C@@H]1CN1CCCC1 [Compound 49, 2-[({4-[N-cyclopropyl-carboximidoyl]pyridin-2-yl}methyl)amino]-1-[(2R)-2-(pyrrolidin-1-ylmethyl)pyrrolidin-1-yl]ethan-1-one] | > 2.5 | < 0.25 | < 0.25 | < 0.25 | > 2.5 | > 2.5 |
| CCN1CCCC1CNC(=O)CNCc1cc(/C=N/C2CC2)ccn1 (stereo not drawn) [Compound 51, 2-[({4-[N-cyclopropyl-carboximidoyl]-pyridin-2-yl}methyl)-amino]-N-[(1-ethylpyrrolidin-2-yl)methyl]acetamide] | > 2.5 | 0.25 to 2.5 | < 0.25 | < 0.25 | > 2.5 | > 2.5 |
| CN(CCCn1cccn1)C(=O)CNCc1cc(/C=N/C2CC2)ccn1 [Compound 52, 2-[({4-[N-cyclopropyl-carboximidoyl]-pyridin-2-yl}methyl)amino]-N-methyl-N-[3-(1H-pyrazol-1-yl)propyl]acetamide] | 0.25 to 2.5 | 0.25 to 2.5 | < 0.25 | < 0.25 | > 2.5 | > 2.5 |
| O=C(CNCc1cc(/C=N/C2CC2)ccn1)NC1CCN(Cc2ccccc2)C1 (stereo not drawn) [Compound 53, N-(1-benzylpyrrolidin-3-yl)-2-[({4-[N-cyclopropyl-carboximidoyl]pyridin-2-yl}methyl)amino]-acetamide] | 0.25 to 2.5 | < 0.25 | < 0.25 | < 0.25 | > 2.5 | 0.25 to 2.5 |
| CN1CCN(C(=O)CNCc2cc(/C=N/C3CC3)ccn2)CC1 [Compound 54, 2-[({4-[N-cyclopropyl-carboximidoyl]-pyridin-2-yl}methyl)amino]-1-(4-methylpiperazin-1-yl)ethan-1-one] | > 2.5 | 0.25 to 2.5 | < 0.25 | < 0.25 | > 2.5 | > 2.5 |
| O=C(CNCc1cc(/C=N/C2CC2)ccn1)N1CCC(Cc2ccccc2)CC1 [Compound 55, 1-(4-benzylpiperidin-1-yl)-2-[({4-[N-cyclopropyl-carboximidoyl]-pyridin-2-yl}methyl)amino]-ethan-1-one] | > 2.5 | 0.25 to 2.5 | 0.25 to 2.5 | < 0.25 | > 2.5 | > 2.5 |
